Tests used:
human Axioloids = experiment: Axioloid morphogenesis during Matrigel embedding phase (brightfield live imaging, length, segment and somite quantification); assay type: cell-based; conditions: added during MG embedding phase 72 h-120 h (RA 100 nM, ROL 10 μM, RAL 1 μM); 96 h and 120 h
Procedure: Human iPS cells were seeded on iMatrix-511 silk (Nippi) coated dishes at a density of 1.3×10^4 cells/well into 6 well plates 5 days prior to Axioloid induction and used at 60% confluency. All subsequent induction steps were performed in AK02N (Reprocell) medium without component C (AK02N-C). Initially, hiPSCs were pulsed with a strong mesoderm and primitive streak fate inducing combination of bFGF (20 ng ml-1) and WNT agonist CHIR99021 (5 μM) for 24 h. CHIR99021 concentration may need to be adjusted depending on the used iPSC line, but remains usually in the range of 3-5 μM. 24 h after the initial pulse, cells were dissociated with Accutase (Thermo Fisher Scientific) and cultured for 24 h in 96-well U-bottom low attachment plates (Sumilon) at 500 cells/well in 50 μl of AK02N—C based aggregation medium supplemented with CHIR99021 (5 μM), basic FGF (20 ng ml^1), TGFβ inhibitor SB431542 (10 μM) and ROCK inhibitor Y27632 (10 μM). 24 h after aggregation, 150 μl of AK02N-C medium was added into each well and exchanged again after 24 h with 150 μl of fresh AK02N-C medium. 48 h after aggregation Axioloids were transferred one-by-one into BSA-treated 96-well flat-bottom low attachment plates (Watson) and embedded into 80 μl of AK02N-C medium containing 10% growth factor-reduced Matrigel (Corning) and cultured further at 37° C. and 5% CO2 for 24 to 48 h. Depending on the experimental setup Retinoic Acid signaling molecules, i.e. Retinoic Acid (RA) (100 nM), Retinol (ROL) (10 μM) or all trans-Retinal (RAL) (1 μM) were added to the MG containing medium throughout the embedding phase. Small molecule inhibitors of FGF (PD173074 (250 nM)), WNT (XAV939 (2 μM)), RA (BMS493 (2.5 μM)) and Notch (DAPT (25 μM)) signaling were also added during the embedding phase and their effects on Axioloids assessed accordingly. For details of the used recombinant human proteins, small molecule agonists and inhibitors, please see Supplementary Table 1. […]
Periodicity of segmentation was quantified from brightfield live-cell imaging data obtained with an inverted Ti2 microscope system (Nikon) using PlanApo λ 10× objective. […]
Quantification of length or intensity based on imaging data was performed using Fiji^57. Rostrocaudal length of formed segments was quantified from a center plane in z-stack images of Phalloidin-stained Axioloids. The longitudinal axes of Axioloids were measured on bright field images using Segmented Line tool. For quantifying fluorescent intensity of HCR or IHC staining, first, maximum intensity z projection images were created from multi-channel z-stack confocal images, then intensity of each channel was quantified along the longitudinal axis of Axioloids by Segmented Line tool, with a line width which corresponds to approximately 80% of the lateral length of Axioloids. […]

[1] = tested on: segmentation clock gene HES7; experiment: HES7:Luciferase reporter oscillation of the segmentation clock in Axioloids; assay type: cell-based, human; conditions: RA, RAL or ROL, with or without MG
Procedure: Bioluminescence live-cell imaging of HES7-reporter (201B7Luc) iPSC-derived human Axioloids (201B7Luc) was performed and signal was quantified as previously described^55,56 Briefly, one day before imaging glass-bottom 96-well plates (Iwaki) were coated with 50 μl of 1.5% PVA (Nacalai), the PVA solution was hereby aspirated and the plates dried on top of a clean bench overnight at room temperature. Prior to imaging, Axioloids were set onto coated glass-bottom 96-well plates with 80 μl of AK02N-C medium containing […] D-Luciferin and 10% Matrigel. Small molecule agonists and antagonists of signaling pathways were added according to the experimental setup. Bioluminescence signals of Axioloids induced from the HES7-reporter cell line were recorded on IX83 (Olympus) equipped with iXon EMCCD camera (Andor) cultured in a stage top incubator (Tokai Hit). Signal was acquired with 2×2 binning and 1 min exposure. Cosmic rays were removed from the raw images by applying spike noise filter, then smoothed by median filter. Temporal fluctuation of signal baseline was corrected by background subtraction. Kymograph was generated by averaging luminescence intensity values along the lateral axis of Axioloids and resulted values were aligned in temporal order.
Periodicity of HES7 oscillation was quantified from time-series luminescence intensity data obtained from either live imaging or Kronos HT (Atto) measurements using HES7 reporter-derived Axioloids. For Kronos HT based oscillation measurements, Axioloids were transferred at 72 h (48 h after aggregation) into 24-well film-bottom plates (Eppendorf) covered in 400 μl of embedding medium (+/−MG) supplemented with D-Luciferin (100 μM) (bioWORLD). Axioloid containing culture plates were cultured at 37° C. and 5% CO2. Oscillations were measured for 48 hours and each well was measured for 10 seconds with 8 min intervals. Intensity values were processed using Matlab. Temporal trend was obtained by subtracting moving average (window size of 10 h), and the detrended signal was smoothed by Savitzky-Golay filter (window size of 3 h). Instantaneous oscillation phase was calculated by applying Hilbert transform, then peak detection was performed on cosine values of instantaneous oscillation phase. Peak-to-peak period was then quantified on each n-th oscillation.

CC1=C(/C=C/C(C)=C/C=C/C(C)=C/C=O)C(C)(C)CCC1 [RAL, all trans-Retinal]
stability and epithelialization of forming segments (human Axioloids): dramatic improvement of the stability and epithelialization of forming segments
oscillatory activity including periodicity of HES7 [1]: largely no effect
